In US6509368B1, “Use of catechol derivatives as proteinase inhibitors” (Gruenenthal GmbH, priority 1998, dated 2003):

Legend:
Human elastase = target: T1, Human elastase (Homo sapiens, UniProt P08246); test: Inhibition of purified human elastase in vitro; format: biochemical
T1 sequence (P08246 30-247 limits assumed): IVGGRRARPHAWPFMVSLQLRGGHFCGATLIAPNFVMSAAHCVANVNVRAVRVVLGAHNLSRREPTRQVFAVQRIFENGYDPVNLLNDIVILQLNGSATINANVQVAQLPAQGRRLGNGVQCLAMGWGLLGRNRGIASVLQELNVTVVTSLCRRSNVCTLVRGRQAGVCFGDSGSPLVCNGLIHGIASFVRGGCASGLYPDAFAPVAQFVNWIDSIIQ
Procedure: (§1) The experiments were carried out in vitro using purified human enzymes. The enzyme substrates used were substrates to be measured by photometry or fluorometry.

[1] = test system: mesenchymal cells from the limb buds of murine embryos (chondrocytes); test: Organoid model of cartilage formation: mineralisation in the presence of LPS; format: cell-based; conditions: concentration of 10 μm; calcium content of extracellular matrix after culturing for 14 days
Procedure: In a further in vitro experiment, the effectiveness of the compounds as regards inflammatory diseases was tested in an organoid model of cartilage formation. For that model, mesenchymal cells from the limb buds of murine embryos were placed in cell culture. In the cell culture, the cells formed an extracellular matrix corresponding to joint cartilage. Mineralisation of the extracellular matrix was induced by addition of β-glycerophosphate. Cartilage formation and mineralisation were inhibited by addition of bacterial lipopolysaccharide (LPS) as inflammation mediator. The effect of the compounds on the LPS-induced impairment of mineralisation was examined by measuring the calcium content of the extracellular matrix by flame photometry after culturing for 14 days.
The values indicate the percentage increase in mineralisation in comparison with the LPS-treated culture.

[2] = target: Human leucocyte collagenase (MMP-8) (Homo sapiens, UniProt P22894); test: Inhibition of purified human leucocyte collagenase in vitro; format: biochemical
Sequence of Human leucocyte collagenase (MMP-8) (P22894 101-467): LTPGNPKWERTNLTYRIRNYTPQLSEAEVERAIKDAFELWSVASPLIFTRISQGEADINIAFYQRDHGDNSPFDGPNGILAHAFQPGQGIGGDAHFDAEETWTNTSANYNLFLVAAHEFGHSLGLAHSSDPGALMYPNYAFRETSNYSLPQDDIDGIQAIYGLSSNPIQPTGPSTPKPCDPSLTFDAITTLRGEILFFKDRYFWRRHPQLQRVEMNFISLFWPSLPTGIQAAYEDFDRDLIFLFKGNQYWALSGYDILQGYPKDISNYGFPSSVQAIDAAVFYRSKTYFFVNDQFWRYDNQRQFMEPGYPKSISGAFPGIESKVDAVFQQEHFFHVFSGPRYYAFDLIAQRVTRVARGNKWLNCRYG
Procedure: as §1

[3] = target: Human gelatinase B (MMP-9) (Homo sapiens, UniProt P14780); test: Inhibition of purified human gelatinase B in vitro; format: biochemical
Sequence of Human gelatinase B (MMP-9) (P14780 94-707): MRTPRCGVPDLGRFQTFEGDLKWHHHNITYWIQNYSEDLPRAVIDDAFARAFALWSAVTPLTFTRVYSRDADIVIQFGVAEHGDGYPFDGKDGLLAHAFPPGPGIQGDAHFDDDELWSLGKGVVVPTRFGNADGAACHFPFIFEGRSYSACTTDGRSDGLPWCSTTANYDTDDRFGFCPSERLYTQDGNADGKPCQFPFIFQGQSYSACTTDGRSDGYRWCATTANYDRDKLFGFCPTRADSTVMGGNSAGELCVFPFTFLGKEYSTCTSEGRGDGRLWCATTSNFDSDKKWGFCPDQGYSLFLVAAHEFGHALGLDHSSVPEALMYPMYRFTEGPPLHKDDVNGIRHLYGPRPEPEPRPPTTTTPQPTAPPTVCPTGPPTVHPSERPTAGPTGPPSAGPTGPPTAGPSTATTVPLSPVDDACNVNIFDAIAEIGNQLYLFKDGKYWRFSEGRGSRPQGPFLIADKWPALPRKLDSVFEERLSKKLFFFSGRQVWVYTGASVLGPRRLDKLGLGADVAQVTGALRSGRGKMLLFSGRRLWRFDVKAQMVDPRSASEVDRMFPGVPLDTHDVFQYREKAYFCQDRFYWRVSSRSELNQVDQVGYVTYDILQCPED
Procedure: as §1

[4] = target: T2, Human fibroblast collagenase (MMP-1) (Homo sapiens, UniProt P03956); test: Inhibition of purified human fibroblast collagenase in vitro; format: biochemical; conditions: read-out: Human fibroblast collagenase (MMP-1): % inhibition at concentration
T2 sequence (P03956 100-469): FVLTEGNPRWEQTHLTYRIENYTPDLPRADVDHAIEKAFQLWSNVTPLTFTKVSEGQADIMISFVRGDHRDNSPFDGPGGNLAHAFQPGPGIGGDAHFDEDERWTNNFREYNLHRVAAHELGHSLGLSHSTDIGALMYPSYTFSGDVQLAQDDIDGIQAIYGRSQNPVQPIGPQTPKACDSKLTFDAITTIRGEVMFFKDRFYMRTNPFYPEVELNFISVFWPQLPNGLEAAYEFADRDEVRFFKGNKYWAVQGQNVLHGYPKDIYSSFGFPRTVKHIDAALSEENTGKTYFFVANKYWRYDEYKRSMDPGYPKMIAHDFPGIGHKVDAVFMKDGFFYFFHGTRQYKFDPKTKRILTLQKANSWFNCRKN
Procedure: as §1

Stromelysin-1 (MMP-3) = Stromelysin-1 (MMP-3) (Homo sapiens, UniProt P08254); test: Inhibition of purified stromelysin-1 in vitro; format: biochemical
Sequence of Stromelysin-1 (MMP-3) (P08254 100-477): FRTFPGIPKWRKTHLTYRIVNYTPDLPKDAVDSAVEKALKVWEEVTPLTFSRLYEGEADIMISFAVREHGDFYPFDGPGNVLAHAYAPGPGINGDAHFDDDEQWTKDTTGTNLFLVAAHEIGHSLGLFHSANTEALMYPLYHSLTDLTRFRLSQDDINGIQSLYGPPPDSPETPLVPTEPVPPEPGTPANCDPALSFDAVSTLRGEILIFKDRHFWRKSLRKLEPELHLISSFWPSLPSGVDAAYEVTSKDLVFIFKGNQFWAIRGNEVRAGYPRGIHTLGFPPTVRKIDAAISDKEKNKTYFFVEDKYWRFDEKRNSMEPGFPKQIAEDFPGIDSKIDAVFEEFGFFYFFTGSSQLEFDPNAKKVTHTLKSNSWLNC
Procedure: as §1

| IC50 (Human elastase) [µM] | IC50 [2] [µM] | IC50 [3] [µM] | inhibition at 100 µM [4] [%] | inhibition at 100 µM (Stromelysin-1 (MMP-3); 100 μM, read-out: Stromelysin-1 (MMP-3) % inhibition at concentration) [%] | IC50 (Stromelysin-1 (MMP-3)) [µM] | inhibition at 100 µM ([2]; 100 μM, read-out: Human leucocyte collagenase (MMP-8): % inhibition at concentration) [%] | Compound | Chondrocytes: Mineralisation in the presence of LPS; action (percentage increase in mineralisation in comparison with the LPS-treated culture) [1] |
| --- | --- | --- | --- | --- | --- | --- | --- | --- |
| 2 | 173 | – | – | – | – | – | CCCCCC#Cc1ccc(O)c(O)c1C=CC(=O)OC [Example 2, 3-(6-hept-1-ynyl-2,3-dihydroxy-phenyl)-acrylic acid methyl ester] | +38% |
| 1.6 | – | – | – | – | 320 | 40 | CCCCCCCCCOc1ccc(O)c(O)c1 [Example 3, 4-nonyloxy-1,2-benzene diol] | +43% |
| 55 | – | – | – | – | – | – | OCC#CCCCCCCC#Cc1ccc(O)c(O)c1 [Example 4, 4-(11-hydroxy-undeca-1,9-diynyl)-1,2-benzene diol] | +12% |

Further lines, the compound ahead of its results:

| Compound | IC50 (Human elastase) [µM] | IC50 [2] [µM] | IC50 [3] [µM] | inhibition at 100 µM [4] [%] | inhibition at 100 µM (Stromelysin-1 (MMP-3); 100 μM, read-out: Stromelysin-1 (MMP-3) % inhibition at concentration) [%] | IC50 (Stromelysin-1 (MMP-3)) [µM] | inhibition at 100 µM ([2]; 100 μM, read-out: Human leucocyte collagenase (MMP-8): % inhibition at concentration) [%] | Chondrocytes: Mineralisation in the presence of LPS; action (percentage increase in mineralisation in comparison with the LPS-treated culture) [1] |
| --- | --- | --- | --- | --- | --- | --- | --- | --- |
| Oc1ccc(C=Cc2ccc3ccccc3c2)cc1O [Example 5, 4-(2-naphth-2-yl-vinyl)-1,2-benzene diol] | 0.125 | 100 | 32 | 40 | 22 | – | – | +81% |
| O=C(c1ccc(O)c(O)c1)c1cc(-c2ccccc2)[nH]n1 [Example 6, (3,4-dihydroxy-phenyl)(5-phenyl-1H-pyrazol-3-yl)-methanone] | – | – | – | – | – | – | – | +17% |
| COC(=O)C1=Cc2cc(O)c(O)c(O)c2CC1 [Example 1, 5,6,7-trihydroxy-3,4-dihydronaphthalene-2-carboxylic acid methyl ester] | 5.5 | 60 | 72 | – | – | 850 | – | +42% |
